Data published in US7897364B2, “Method for determining inhibitors of neurotrypsin” (University of Zurich, priority 2005, dated 2011).
Entries after “also recorded” stand apart in the source; their conditions may differ.

Assays:
neurotrypsin = biological target: T1, neurotrypsin (Homo sapiens, UniProt P56730); assay: Western blot-based screening assay for neurotrypsin inhibitors (agrin-EGFP cleavage); assay type: biochemical; conditions: inhibitor 25 or 150 μM; agrin-EGFP substrate; 3 h at 37° C.; intensity of 150-kDa fragment on Western blot
T1 construct: Human or murine neurotrypsin or catalytically active truncated versions of neurotrypsin are used; made in house; host or cells: mouse myeloma cell line J558L
T1 sequence (P56730 21-875): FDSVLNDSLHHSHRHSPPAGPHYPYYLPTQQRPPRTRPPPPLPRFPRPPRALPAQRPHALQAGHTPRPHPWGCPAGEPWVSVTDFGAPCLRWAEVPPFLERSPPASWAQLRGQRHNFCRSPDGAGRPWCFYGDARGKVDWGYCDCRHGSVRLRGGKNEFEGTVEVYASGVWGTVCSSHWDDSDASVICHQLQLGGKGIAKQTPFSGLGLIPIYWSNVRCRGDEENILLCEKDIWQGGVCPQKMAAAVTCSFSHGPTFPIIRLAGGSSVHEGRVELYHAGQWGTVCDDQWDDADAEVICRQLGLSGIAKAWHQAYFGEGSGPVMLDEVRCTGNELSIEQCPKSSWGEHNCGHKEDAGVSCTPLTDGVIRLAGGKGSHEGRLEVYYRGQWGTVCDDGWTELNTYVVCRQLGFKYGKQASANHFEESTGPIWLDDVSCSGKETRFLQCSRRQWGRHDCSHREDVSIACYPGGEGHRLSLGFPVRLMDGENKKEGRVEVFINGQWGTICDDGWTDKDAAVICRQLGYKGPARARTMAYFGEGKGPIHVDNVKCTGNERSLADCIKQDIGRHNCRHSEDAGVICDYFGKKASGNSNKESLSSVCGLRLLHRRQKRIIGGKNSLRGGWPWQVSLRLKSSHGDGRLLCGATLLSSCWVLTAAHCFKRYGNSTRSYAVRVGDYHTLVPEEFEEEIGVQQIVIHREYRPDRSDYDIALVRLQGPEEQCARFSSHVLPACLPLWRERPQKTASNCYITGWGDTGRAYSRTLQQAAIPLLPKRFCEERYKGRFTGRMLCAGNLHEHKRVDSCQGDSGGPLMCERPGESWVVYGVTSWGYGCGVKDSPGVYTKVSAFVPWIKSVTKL
Protocol: Negative control (−): only agrin-EGFP without neurotrypsin. Positive control (+): agrin-EGFP with addition of neurotrypsin.
Compounds were dissolved in DMSO to a final concentration of 10 mM. For the assay the solution in DMSO was diluted with 10 mM MOPS, pH 7.5, to a concentration of 500 μM and 5% DMSO (1:20 dilution). Insoluble and precipitated material was removed by centrifugation (15 min, 16 krcf, RT). The cleared supernatant was used for the inhibition assay, as described in Example 27.
(§1) The inhibitory activity of small-molecule compounds on the catalytic activity of neurotrypsin is measured in 150 mM NaCl, 5 mM CaCl2, 5% DMSO, 0.1% PEG 6000, and 20 mM MOPS, pH 7.5 in 0.5 ml low protein-binding Eppendorf tubes in a total volume of 15 μl. Human or murine neurotrypsin or catalytically active truncated versions of neurotrypsin are used at a concentration that results in cleavage of 80% of the substrate within 3 hours. As substrate, engineered soluble agrin, for example 0.1-1 μM agrin-EGFP (Example 20) or 0.1-3 μM engineered agrin-C45 (Example 21), is used. […]
One way of substrate visualization is Western blotting. […] The intensity of the 150-kDa fragments of agrin-EGFP generated by neurotrypsin-mediated cleavage in the presence of the putative inhibitory compounds (FIG. 16 A) are measured and the relative intensities are plotted (FIG. 16 B).

mouse neurotrypsin = biological target: T2, mouse neurotrypsin (Mus musculus, UniProt O08762); assay: Dose dependence of neurotrypsin inhibition (agrin-EGFP cleavage, Western blot); assay type: biochemical; conditions: 0 to 200 μM compound; agrin-EGFP substrate; Western blot quantification; read-out: IC50 value (half-maximum amount of product)
T2 construct: made in house; host or cells: mouse myeloma cell line J558L
T2 sequence (O08762 22-761): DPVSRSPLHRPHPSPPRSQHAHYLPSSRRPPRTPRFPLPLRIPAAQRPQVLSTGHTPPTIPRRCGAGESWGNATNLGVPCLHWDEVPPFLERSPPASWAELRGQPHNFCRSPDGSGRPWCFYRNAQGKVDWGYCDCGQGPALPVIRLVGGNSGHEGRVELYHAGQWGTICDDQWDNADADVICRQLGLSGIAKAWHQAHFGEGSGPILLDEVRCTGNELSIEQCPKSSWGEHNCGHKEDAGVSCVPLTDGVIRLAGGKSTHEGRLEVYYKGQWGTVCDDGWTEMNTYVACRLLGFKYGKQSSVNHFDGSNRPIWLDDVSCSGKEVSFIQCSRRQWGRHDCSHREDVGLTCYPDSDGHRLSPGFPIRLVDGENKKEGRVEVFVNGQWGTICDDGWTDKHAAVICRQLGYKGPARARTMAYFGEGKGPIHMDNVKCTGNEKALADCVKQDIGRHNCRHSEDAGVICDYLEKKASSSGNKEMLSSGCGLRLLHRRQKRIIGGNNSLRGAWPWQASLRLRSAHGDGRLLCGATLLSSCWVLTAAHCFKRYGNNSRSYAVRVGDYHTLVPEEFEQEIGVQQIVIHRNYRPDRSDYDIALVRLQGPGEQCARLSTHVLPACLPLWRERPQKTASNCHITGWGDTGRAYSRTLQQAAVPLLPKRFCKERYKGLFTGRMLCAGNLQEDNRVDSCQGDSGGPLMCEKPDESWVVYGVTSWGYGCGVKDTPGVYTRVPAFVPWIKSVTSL
Text: (A) Western blot detection of the 150 kDa C-terminal fragment of agrin (Ag-CF) generated by neurotrypsin-mediated cleavage of agrin-EGFP in dependence of the concentration of compound No. 7, N^1-amidino-N^4-(3,5-dibromosalicylidene)-sulfanilamide.
(B) Graphic plot of the intensity data from (A) against the inhibitor concentration with I=100% intensity for agrin+mouse neurotrypsin without addition of inhibitor compound No. 7.
as §1, with “used. Inhibitor solution in 10 mM MOPS, pH 7.5, containing 5% DMSO is added to a final concentration of either 25 or 150 μM.” for “used.”
Different concentrations of compound No. 7 from 0 to 200 μM were tested with the assay described in Example 27 with engineered agrin-EGFP as substrate. The generated product was detected by Western blot (FIG. 17 A) and quantified (FIG. 17 B).

Factor Xa = biological target: T3, Factor Xa (Bos taurus, UniProt P00743); assay: Specificity test, photometric pNA peptide substrate assay: factor Xa; assay type: biochemical, bovine; conditions: 100 μM compound; substrate Bz-IEGR-pNA; 25° C.
T3 construct: purchased Sigma Aldrich Chemie GmbH; host or cells: bovine plasma
Protocol: (§2) To check the specificity of a compound found to have an inhibitory effect on human neurotrypsin, standard enzyme kinetic measurements with a set of common serine proteases were performed. A standard photometric assay with commercially available proteases and para-nitroanilide-coupled small peptide substrates was used.
Factor Xa activated from bovine plasma (6.1 mg protein/ml; Sigma Aldrich Chemie GmbH, D-89552 Steinheim, Germany).
Bz-IEGR-pNA: S-2222, Chromogenix-Instrumentation Laboratory SpA, 1-20128 Milano, Italy.
(§3) The assay was performed in 100 mM Tris-HCl, 150 mM NaCl, 1 mM CaCl2, 5% DMSO, 0.1% PEG 6000, pH 8.0, with the appropriate amount of protease to measure initial velocities and varying amounts of peptide-p-nitroanilide substrates in a range smaller than 0.1 times KM. For inhibition studies 100 μM compound No. 7 were used. Measurements were done at 25° C. in a Cary 50 Spectrophotometer (VARIAN). Initial velocities were determined using various substrate concentrations below 0.1 times KM to be in the range of direct dependency of the initial velocity from the substrate concentration. Initial velocities were plotted against substrate concentrations in the absence or the presence of the candidate inhibitor No. 7. The compound was used in a concentration of 100 μM.

Trypsin = biological target: T4, Trypsin (Sus scrofa, UniProt P00761); assay: Specificity test, photometric pNA peptide substrate assay: trypsin; assay type: biochemical, hog; conditions: 100 μM compound; substrate Bz-FVR-pNA; 25° C.
T4 construct: Trypsin from hog pancreas; purchased Fluka Chemie AG; host or cells: hog pancreas
Protocol: as §2
Trypsin from hog pancreas (16099 U/mg; Fluka Chemie AG, CH-9471 Buchs, Switzerland).
(§4) Bz-FVR-pNA: N-Benzoyl-Phe-Val-Arg-p-nitroanilide HCl, Bachem AG, CH-4416 Bubendorf, Switzerland.
as §3

tPA = biological target: T5, tPA (Homo sapiens, UniProt P00750); assay: Specificity test, photometric pNA peptide substrate assay: tPA; assay type: biochemical; conditions: 100 μM compound; substrate IPR-pNA; 25° C.
T5 construct: purchased Dr. Karl Thomae GmbH Actilyse (10 mg)
Protocol: as §2
tPA: Actilyse (10 mg; Dr. Karl Thomae GmbH, Birkendorfer Straβe 65, D-88397 Biberach, Germany).
IPR-pNA: S-2288, Chromogenix-Instrumentation Laboratory SpA.
as §3

Thrombin = biological target: T6, Thrombin (Bos taurus, UniProt P00735); assay: Specificity test, photometric pNA peptide substrate assay: thrombin; assay type: biochemical, bovine; conditions: 100 μM compound; substrate Bz-FVR-pNA; 25° C.
T6 construct: Thrombin from bovine plasma; purchased Merck; host or cells: bovine plasma
Protocol: as §2
(§5) Thrombin from bovine plasma (50 NIH/mg, Merck, D-64271 Darmstadt, Germany). Urokinase HS medac (100000 I.E.; medac Gesellschaft für klinische Spezialpräparate mbH, D-22880 Wedel, Germany).
as §4, §3

Urokinase = biological target: T7, Urokinase (Homo sapiens, UniProt P00749); assay: Specificity test, photometric pNA peptide substrate assay: urokinase; assay type: biochemical; conditions: 100 μM compound; substrate Bz-VGR-pNA; 25° C.
T7 construct: purchased medac Gesellschaft für klinische Spezialpräparate mbH Urokinase HS medac (100000 I.E.)
Protocol: as §2, §5
Bz-VGR-pNA: N-Benzoyl-Val-Gly-Arg-p-nitroanilide, Sigma Aldrich Chemie GmbH.
as §3

Kallikrein = biological target: T8, Kallikrein (Sus scrofa, UniProt P00752); assay: Specificity test, photometric pNA peptide substrate assay: kallikrein; assay type: biochemical, porcine; conditions: 100 μM compound; substrate Bz-FVR-pNA; 25° C.
T8 construct: Kallikrein from porcine pancreas; purchased Sigma Aldrich Chemie GmbH; host or cells: porcine pancreas
Protocol: as §2
(§6) Kallikrein from porcine pancreas (43 U/mg solid; Sigma Aldrich Chemie GmbH). Plasmin from human plasma (3.2 U/mg solid; Sigma Aldrich Chemie GmbH).
as §4, §3

Plasmin = biological target: T9, Plasmin (Homo sapiens, UniProt P00747); assay: Specificity test, photometric pNA peptide substrate assay: plasmin; assay type: biochemical; conditions: 100 μM compound; substrate N-Tosyl-GPK-pNA; 25° C.
T9 construct: Plasmin from human plasma; purchased Sigma Aldrich Chemie GmbH; host or cells: human plasma
Protocol: as §2, §6
N-Tosyl-GPK-pNA: N-Tosyl-Gly-Pro-Lys-p-nitroanilide, #90178, Fluka Chemie AG.
as §3

T3 sequence (P00743 234-492 limits assumed): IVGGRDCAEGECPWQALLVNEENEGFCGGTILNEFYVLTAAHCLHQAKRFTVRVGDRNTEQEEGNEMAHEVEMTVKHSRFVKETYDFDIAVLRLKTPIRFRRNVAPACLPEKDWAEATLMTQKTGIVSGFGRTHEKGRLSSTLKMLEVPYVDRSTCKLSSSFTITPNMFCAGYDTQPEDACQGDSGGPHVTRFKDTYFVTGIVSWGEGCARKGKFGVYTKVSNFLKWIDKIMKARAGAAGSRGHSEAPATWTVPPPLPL
T3 sequence (P00743 41-180 limits assumed): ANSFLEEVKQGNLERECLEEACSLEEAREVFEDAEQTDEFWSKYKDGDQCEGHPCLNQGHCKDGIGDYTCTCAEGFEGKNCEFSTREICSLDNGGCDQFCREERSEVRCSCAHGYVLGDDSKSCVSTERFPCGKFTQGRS
T8 sequence (P00752 8-246): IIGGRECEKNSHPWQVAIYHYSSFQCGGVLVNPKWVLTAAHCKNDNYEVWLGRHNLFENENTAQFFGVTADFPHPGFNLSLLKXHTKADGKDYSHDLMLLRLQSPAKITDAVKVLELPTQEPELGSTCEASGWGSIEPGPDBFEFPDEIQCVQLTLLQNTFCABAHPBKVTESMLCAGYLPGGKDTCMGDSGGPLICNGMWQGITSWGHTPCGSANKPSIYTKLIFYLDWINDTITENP
T9 sequence (P00747 581-810 limits assumed): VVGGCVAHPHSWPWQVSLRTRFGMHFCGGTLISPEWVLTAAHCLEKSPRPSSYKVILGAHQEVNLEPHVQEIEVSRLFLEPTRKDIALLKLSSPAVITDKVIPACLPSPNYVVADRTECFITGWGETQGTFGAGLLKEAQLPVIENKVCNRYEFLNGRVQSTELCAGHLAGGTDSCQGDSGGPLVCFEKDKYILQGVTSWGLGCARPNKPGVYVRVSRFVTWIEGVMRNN
T9 sequence (P00747 97-580 limits assumed): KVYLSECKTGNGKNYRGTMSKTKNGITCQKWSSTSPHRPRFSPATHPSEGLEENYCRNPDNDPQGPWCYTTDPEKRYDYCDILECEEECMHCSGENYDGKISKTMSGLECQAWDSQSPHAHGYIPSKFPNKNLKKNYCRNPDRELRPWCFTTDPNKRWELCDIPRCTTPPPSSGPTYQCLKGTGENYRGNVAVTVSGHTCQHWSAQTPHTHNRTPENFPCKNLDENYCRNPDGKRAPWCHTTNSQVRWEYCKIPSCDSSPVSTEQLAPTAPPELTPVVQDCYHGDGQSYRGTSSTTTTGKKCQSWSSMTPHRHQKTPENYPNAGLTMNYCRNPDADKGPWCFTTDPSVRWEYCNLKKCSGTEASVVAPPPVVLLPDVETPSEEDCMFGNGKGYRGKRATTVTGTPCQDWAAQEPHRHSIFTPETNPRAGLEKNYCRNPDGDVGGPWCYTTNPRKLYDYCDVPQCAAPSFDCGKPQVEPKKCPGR
T5 sequence (P00750 36-562): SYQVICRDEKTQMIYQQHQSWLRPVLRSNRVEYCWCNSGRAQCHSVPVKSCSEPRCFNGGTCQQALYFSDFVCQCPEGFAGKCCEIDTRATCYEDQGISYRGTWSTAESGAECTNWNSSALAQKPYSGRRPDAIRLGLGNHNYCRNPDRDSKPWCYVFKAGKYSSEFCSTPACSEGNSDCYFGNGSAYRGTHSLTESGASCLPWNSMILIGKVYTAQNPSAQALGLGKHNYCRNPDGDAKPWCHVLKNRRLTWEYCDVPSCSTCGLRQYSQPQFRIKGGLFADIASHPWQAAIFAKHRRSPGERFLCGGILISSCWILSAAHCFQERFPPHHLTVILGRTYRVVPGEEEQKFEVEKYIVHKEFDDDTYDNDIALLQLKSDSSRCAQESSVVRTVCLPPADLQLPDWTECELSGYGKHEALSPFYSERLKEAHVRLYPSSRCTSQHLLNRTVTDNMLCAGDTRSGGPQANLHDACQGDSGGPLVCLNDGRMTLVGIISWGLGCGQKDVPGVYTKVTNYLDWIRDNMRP
T4 sequence (P00761 9-231): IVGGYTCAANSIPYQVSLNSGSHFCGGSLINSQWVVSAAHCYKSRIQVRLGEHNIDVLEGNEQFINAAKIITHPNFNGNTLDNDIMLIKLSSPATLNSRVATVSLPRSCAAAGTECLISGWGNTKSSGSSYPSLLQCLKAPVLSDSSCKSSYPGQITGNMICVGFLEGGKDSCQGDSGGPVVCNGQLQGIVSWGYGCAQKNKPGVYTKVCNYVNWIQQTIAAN

inhibitory activity on neurotrypsin (neurotrypsin): significant inhibitory activity
IC50 (mouse neurotrypsin): ~60 µM
Structure (SMILES): N=C(N)NS(=O)(=O)c1ccc(N=Cc2cc(Br)cc(Br)c2O)cc1 [Compound No. 7, N^1-amidino-N^4-(3,5-dibromosalicylidene)-sulfanilamide]
inhibition of factor Xa (initial velocities) (Factor Xa): None of the investigated enzymes showed a significant inhibition; also recorded: No inhibition
inhibition of trypsin (initial velocities) (Trypsin): None of the investigated enzymes showed a significant inhibition; also recorded: No inhibition
inhibition of tPA (initial velocities) (tPA): None of the investigated enzymes showed a significant inhibition; also recorded: No inhibition
inhibition of thrombin (initial velocities) (Thrombin): None of the investigated enzymes showed a significant inhibition; also recorded: No inhibition
inhibition of urokinase (initial velocities) (Urokinase): None of the investigated enzymes showed a significant inhibition; also recorded: No inhibition
inhibition of kallikrein (initial velocities) (Kallikrein): None of the investigated enzymes showed a significant inhibition; also recorded: No inhibition
inhibition of plasmin (initial velocities) (Plasmin): None of the investigated enzymes showed a significant inhibition; also recorded: No inhibition
